Measured values: the supplement of paper PMC11451515

Tested on: SEM cells
Test: cell viability relative to DMSO control; higher = less cytotoxic
Conditions: 48 h
Summary of the method: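 In 1536-well plates, 5 μl of leukemia cells were seeded per well: 500 cells/well for NOMO1 or SEM and 1000 cells/well for P12-Ichikawa. Each line had first been adapted for at least four passages in each medium. Library compounds in DMSO were pin-dosed at 11 threefold concentrations between 47 μM and 0.79 nM, and CellTiter-Glo One luminescence was read after 48 h at 37°C. Viability is a per-plate percentage relative to DMSO wells, with cell-free wells as background.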

[1] = HPLM + 10% dialyzed FBS, 0.000781 µM
[2] = HPLM + 10% dialyzed FBS, 0.00234 µM
[3] = HPLM + 10% dialyzed FBS, 0.00702 µM
[4] = HPLM + 10% dialyzed FBS, 0.0211 µM
[5] = HPLM + 10% dialyzed FBS, 0.0632 µM
[6] = HPLM + 10% dialyzed FBS, 0.19 µM
[7] = HPLM + 10% dialyzed FBS, 0.569 µM
[8] = HPLM + 10% dialyzed FBS, 1.71 µM
[9] = HPLM + 10% dialyzed FBS, 5.12 µM
[10] = HPLM + 10% dialyzed FBS, 15.4 µM
[11] = HPLM + 10% dialyzed FBS, 46.1 µM
[12] = RPMI 5 mM glucose + 10% FBS, 0.000781 µM
[13] = RPMI 5 mM glucose + 10% FBS, 0.00234 µM
[14] = RPMI 5 mM glucose + 10% FBS, 0.00702 µM
[15] = RPMI 5 mM glucose + 10% FBS, 0.0211 µM
[16] = RPMI 5 mM glucose + 10% FBS, 0.0632 µM
[17] = RPMI 5 mM glucose + 10% FBS, 0.19 µM
[18] = RPMI 5 mM glucose + 10% FBS, 0.569 µM
[19] = RPMI 5 mM glucose + 10% FBS, 1.71 µM
[20] = RPMI 5 mM glucose + 10% FBS, 5.12 µM
[21] = RPMI 5 mM glucose + 10% FBS, 15.4 µM
[22] = RPMI 5 mM glucose + 10% FBS, 46.1 µM
[23] = RPMI 5 mM glucose + 10% dialyzed FBS, 0.000781 µM
[24] = RPMI 5 mM glucose + 10% dialyzed FBS, 0.00234 µM
[25] = RPMI 5 mM glucose + 10% dialyzed FBS, 0.00702 µM
[26] = RPMI 5 mM glucose + 10% dialyzed FBS, 0.0211 µM
[27] = RPMI 5 mM glucose + 10% dialyzed FBS, 0.0632 µM
[28] = RPMI 5 mM glucose + 10% dialyzed FBS, 0.19 µM
[29] = RPMI 5 mM glucose + 10% dialyzed FBS, 0.569 µM
[30] = RPMI 5 mM glucose + 10% dialyzed FBS, 1.71 µM
[31] = RPMI 5 mM glucose + 10% dialyzed FBS, 5.12 µM
[32] = RPMI 5 mM glucose + 10% dialyzed FBS, 15.4 µM
[33] = RPMI 5 mM glucose + 10% dialyzed FBS, 46.1 µM

| SMILES | cell viability [1] [%] | cell viability [2] [%] | cell viability [3] [%] | cell viability [4] [%] | cell viability [5] [%] | cell viability [6] [%] | cell viability [7] [%] | cell viability [8] [%] | cell viability [9] [%] | cell viability [10] [%] | cell viability [11] [%] | cell viability [12] [%] | cell viability [13] [%] | cell viability [14] [%] | cell viability [15] [%] | cell viability [16] [%] | cell viability [17] [%] | cell viability [18] [%] | cell viability [19] [%] | cell viability [20] [%] | cell viability [21] [%] | cell viability [22] [%] | cell viability [23] [%] | cell viability [24] [%] | cell viability [25] [%] | cell viability [26] [%] | cell viability [27] [%] | cell viability [28] [%] | cell viability [29] [%] | cell viability [30] [%] | cell viability [31] [%] | cell viability [32] [%] | cell viability [33] [%] |
| --- | --- | --- | --- | --- | --- | --- | --- | --- | --- | --- | --- | --- | --- | --- | --- | --- | --- | --- | --- | --- | --- | --- | --- | --- | --- | --- | --- | --- | --- | --- | --- | --- | --- |
| CC(N)C12CC3CC(CC(C3)C1)C2 (stereo not given) | 89.3 | 104 | 96.8 | 110 | 98.4 | 107 | 118 | 108 | 85.3 | 96.1 | 108 | 102 | 100 | 120 | 122 | 113 | 117 | 118 | 123 | 94.5 | 125 | 131 | 106 | 91.5 | 126 | 98.2 | 115 | 115 | 117 | 118 | 88.1 | 107 | 110 |
| CNC1CCC(N(Cc2cccc(-c3ccncc3)c2)C(=O)c2sc3c(F)ccc(F)c3c2Cl)CC1 (stereo not given) | 80.2 | 102 | 106 | 117 | 103 | 101 | 102 | 113 | 93.3 | 85.3 | 53.2 | 97.5 | 101 | 120 | 105 | 109 | 95.9 | 98 | 110 | 99.9 | 92.3 | 73.3 | 93.7 | 99.3 | 113 | 107 | 104 | 74.7 | 101 | 91.9 | 90.3 | 85.9 | 69.2 |
| C[S+](=O)([O-])N1CCc2c(-c3cnc(N)nc3)nc(N3CCOCC3)nc21 | 88.6 | 102 | 91.6 | 97.5 | 100 | 96.3 | 86 | 63.4 | 62.7 | 43.5 | 30.5 | 68.5 | 82.1 | 70.4 | 71.4 | 75.3 | 66.3 | 61 | 50.5 | 38.9 | 22.2 | 18.3 | 88.7 | 105 | 113 | 104 | 92.9 | 104 | 98 | 65.9 | 55.3 | 33.5 | 22.2 |
| CN1CCCN=C1/C=C/c1cccs1.O=C(O)c1cc2ccccc2c(Cc2c(O)c(C(=O)O)cc3ccccc23)c1O | 113 | 126 | 114 | 128 | 120 | 135 | 118 | 119 | 113 | 115 | 91.9 | 113 | 118 | 128 | 119 | 105 | 128 | 129 | 105 | 105 | 92.9 | 15 |  |  |  |  |  |  |  |  |  |  |  |
| C[C@@H]\1CC(=O)N\N=C1C2=CC=C(NN=C(C#N)C#N)C=C2 | 88.9 | 86.8 | 101 | 87.4 | 98.4 | 96.5 | 55.4 | 92.3 | 106 | 62.8 | 4.93 | 68.2 | 92.4 | 107 | 92.6 | 88.4 | 102 | 39.3 | 90.9 | 95.2 | 35.3 | 5 | 73.5 | 88.4 | 91.4 | 93.1 | 95.2 | 92.5 | 72.8 | 100 | 107 | 53.2 | 6.27 |
| O=C1c2c(O)ccc(O)c2C(=O)c2c(NCCNCCO)ccc(NCCNCCO)c21 | 77.4 | 81 | 88.6 | 105 | 95 | 96.5 | 5.15 | 14.7 | 4.46 | 3.34 | 3.77 | 88.3 | 99.7 | 127 | 116 | 97.5 | 79.1 | 5.41 | 10.6 | 4.48 | 2.93 | 3.79 | 90 | 89 | 96.4 | 95.7 | 97.9 | 99 | 4.03 | 15.7 | 4.3 | 2.61 | 3.1 |
| C#C[C@]1(O)CC[C@H]2[C@@H]3CCc4cc(O)ccc4[C@H]3CC[C@@]21C | 86.5 | 103 | 99.6 | 96.6 | 92.2 | 99.4 | 103 | 98.9 | 105 | 68 | 47.1 | 92.3 | 116 | 115 | 113 | 105 | 107 | 111 | 104 | 99.8 | 62.9 | 48.7 | 93.7 | 111 | 108 | 108 | 108 | 98.2 | 95.1 | 114 | 100 | 68.8 | 57.6 |
| C=CC(=O)N1CCC[C@@H](n2nc(-c3ccc(Oc4ccccc4)cc3)c3c(N)ncnc32)C1 |  |  |  |  |  |  |  |  |  |  |  | 95.1 | 127 | 112 | 99 | 128 | 110 | 102 | 99.7 | 103 | 79.9 | 33.5 |  |  |  |  |  |  |  |  |  |  |  |
| CC(C)CC(=O)N[C@H](C(=O)N[C@H](C(=O)N[C@@H](CC(C)C)[C@@H](O)CC(=O)N[C@@H](C)C(=O)N[C@@H](CC(C)C)[C@@H](O)CC(=O)O)C(C)C)C(C)C | 94.4 | 89.1 | 109 | 103 | 74.7 | 95.9 | 101 | 108 | 97.7 | 96.6 | 14.5 | 82.7 | 96.7 | 115 | 94.7 | 68.1 | 104 | 106 | 99 | 98.7 | 89.6 | 10.4 | 93.5 | 116 | 92.2 | 93.4 | 73.1 | 110 | 95.5 | 99.1 | 94.9 | 91.6 | 10.9 |
| COc1ncc(-c2ccc3nccc(-c4ccnnc4)c3c2)cc1N[S+](=O)([O-])c1ccc(F)cc1F | 81 | 71.8 | 60.5 | 66.9 | 59.4 | 50.4 | 43.9 | 30 | 21.1 | 6.8 | 6.02 | 79 | 65 | 74.8 | 61.7 | 51.9 | 46.7 | 37 | 19.2 | 14.2 | 6.8 | 5.84 | 98.1 | 79.9 | 67.8 | 68.7 | 64.6 | 54.4 | 51.9 | 26.5 | 16.7 | 6.57 | 5.89 |
| COc1cc2nccc(Oc3ccc(NC(=O)NC4CC4)c(Cl)c3)c2cc1C(N)=O | 116 | 117 | 126 | 118 | 108 | 108 | 88.7 | 79.2 | 69.1 | 56.2 | 51.4 | 93.5 | 117 | 105 | 98.4 | 97.1 | 98.8 | 72.2 | 80.4 | 63.2 | 44.2 | 32.1 | 119 | 110 | 122 | 114 | 104 | 90.8 | 81.4 | 75 | 59.3 | 53.7 | 47.9 |
| O=C(O[C@H]1C[C@H]2CC[C@@H](C1)[N+]21CCCC1)C(O)(c1ccccc1)c1ccccc1.[Cl-] | 97.4 | 96.2 | 104 | 103 | 115 | 113 | 115 | 115 | 118 | 113 | 98.2 | 90 | 98.1 | 88.4 | 98.9 | 103 | 95.8 | 97.9 | 127 | 109 | 106 | 99.9 | 81 | 101 | 98.5 | 108 | 132 | 122 | 115 | 117 | 119 | 117 | 122 |
| N=C(NCCCCCCNC(=N)NC(=N)Nc1ccc(Cl)cc1)NC(=N)Nc1ccc(Cl)cc1 | 95.6 | 104 | 95.6 | 95.2 | 101 | 104 | 104 | 93.9 | 92.2 | 86.8 | 52 | 98.4 | 102 | 104 | 97.5 | 93.4 | 107 | 96.4 | 104 | 107 | 97.6 | 68 | 83.6 | 92.9 | 93.4 | 87.9 | 89.3 | 96.7 | 90.9 | 85.8 | 103 | 80.9 | 42.1 |
| O=C(O)c1ccc2c(c1)nc(Nc1cccc(Cl)c1)c1ccncc12 | 103 | 114 | 106 | 105 | 110 | 101 | 117 | 102 | 77.6 | 35.9 | 48.8 | 107 | 108 | 98.5 | 103 | 111 | 127 | 104 | 98.1 | 70.7 | 32.1 | 46 | 103 | 103 | 105 | 99.5 | 107 | 125 | 114 | 102 | 62.2 | 30.4 | 38.5 |
| CN(C)[C@H]\1[C@@H]2C[C@H]3C(=C(O)\[C@]2(O)C(=O)\C(=C1O)C(N)=O)/C(=O)C4=C(O)C=CC=C4[C@@]3(C)O | 92.6 | 88.5 | 81.5 | 101 | 92.5 | 90.8 | 92.7 | 86.6 | 85.2 | 90.1 | 78.3 | 113 | 118 | 114 | 102 | 83.7 | 104 | 108 | 96.8 | 93.2 | 109 | 93 | 118 | 108 | 128 | 129 | 89.8 | 108 | 126 | 116 | 59.4 | 116 | 100 |
| C=C[C@H]1CN2CC[C@H]1C[C@H]2[C@H](O)c1ccnc2ccc(OC)cc12 | 91.2 | 99.2 | 93.3 | 97 | 106 | 116 | 104 | 86 | 125 | 96.8 | 74.3 | 90.8 | 88.7 | 84 | 89.7 | 105 | 99.2 | 104 | 90.7 | 102 | 94.5 | 50.4 | 85.2 | 98.2 | 93.4 | 93.8 | 92 | 96.9 | 80 | 80.7 | 90.9 | 102 | 70.2 |
